Assay results: a melting point compilation (Tetko et al.; mined from patent text by program, amines drawn as free bases though some values may be those of a salt)

Row | melting point | Compound
1 | 74 to 77 °C | C=CC(C)(O)CN1CCC2(CC1)CSC1=C(O2)c2ccccc2C(=O)C1=O (centres undefined)
2 | 196 to 199 °C | O=C(O)Cc1c(Cl)nc(-c2ccccc2)n1Cc1ccc(O)cc1
3 | 245 to 249 °C | CN(C)n1c(S)nc2ccccc2c1=O
4 | 205 to 208 °C | CC1C(=O)CCC2(C)C1CCC1C3CCC(=Cc4ccccc4Cl)C3(C)CCC12 (centres undefined)
5 | 213 to 214 °C | NC(=O)CC(O)(c1ccc(Br)cc1)c1cccnc1 (centres undefined)
6 | 63.5 to 64.5 °C | COC(=O)C(c1ccccc1CCl)C(OC)OC (centres undefined)
7 | 133 to 135 °C | CCOC(=O)C1(C(=O)OCC)CCC=C2C1CCC1=Cc3c(cnn3-c3ccc(F)cc3)CC12C (centres undefined)
8 | 175 to 177 °C | COC(=O)c1ccc2cc(CCc3cc4c(C(=O)OC)cccc4o3)oc2c1
9 | 170 to 172 °C | CC(CSC(=O)Nc1ccccc1)C(=O)N(CC(=O)O)C1CCCC1 (centres undefined)
10 | 50 °C | CCOC(=O)c1noc(-c2ccc(SC)cc2Cl)c1C(=O)C1CC1
11 | 268 to 270 °C | CSc1nc(=O)n(Cc2ccccc2)c2ncn(C)c12
12 | 129 to 131 °C | CC(C)(C)c1cc(CSP(=S)(C2CCCCC2)C2CCCCC2)cc(C(C)(C)C)c1O
13 | 42 to 45 °C | CCCCCCCCCCCCCCCc1cc2c(C(=O)OCC)cccc2[nH]1
14 | 155 to 157 °C | Cn1c(CCN2CCN(Cc3ccccc3)CC2)nc2cc(Br)c3ccccc3c21
15 | 256 to 258 °C | COC(=O)c1nc(-c2ccc(Cl)c(S(C)=O)c2F)nc(N)c1Cl (centres undefined)
16 | 190 to 194 °C | O=C(O)C1CC(c2ccc(-c3ccc(N4C[C@H](Cn5ccnn5)OC4=O)cc3F)cn2)=NO1 (some centres undefined)
17 | 110 °C | COC(C#N)=CC1C(C(=O)O)C1(C)C (centres undefined)
18 | 201 to 203 °C | CC1=CC(c2cccc(Cl)c2)C2=C(CCCC2=O)N1 (centres undefined)
19 | 136 to 138 °C | CCSc1cn(C)cc(-c2cccc(C(F)(F)F)c2)c1=S
20 | 62 to 63 °C | O=C(c1ccc(Br)cc1)c1ccc(O)cc1F
21 | 134 to 136 °C | Cc1nc(N2CCc3ccccc3CC2)c(C#N)c(=O)n1N(C)C

Row | melting point | Compound
22 | 72.5 to 74.5 °C | O=[N+]([O-])c1ccc(S(=O)CCCCl)cc1 (centres undefined)
23 | 280 to 283 °C | COc1cc2c(cc1Cl)NC(=O)c1ccccc1S2
24 | 129 to 131 °C | N#CC(c1ccccc1)(c1ccccc1)[C@H]1CCCN(CCc2ccc(Cl)cc2)C1
25 | 175 to 176 °C | Cn1ccc2c3c(C=O)c4ccccc4cc3ccc21
26 | 159 to 161 °C | CN(C)CC1(C2(O)CCCCC2)Cc2cc3c(cc21)NCC3 (centres undefined)
27 | 101 to 102 °C | Cc1c(F)c(F)cc(C(=O)O)c1F
28 | 145 to 146 °C | CC(=O)N1CCC(CCC(=O)c2ccc3c(c2)CCN3)CC1
29 | 81 to 93 °C | COc1cc2c(cc1Nc1ncc(Cl)c(Nc3ccc(N(C)C)cc3S(=O)(=O)C(C)C)n1)CCN(CC(=O)N(C)C)CC2
30 | 127 to 135 °C | CSc1ccc(Br)c2c1C1=NOCC1C2 (centres undefined)
31 | 195 to 197 °C | COc1nc(CC(=O)O)ccc1NC(=O)Nc1ccccc1Br
32 | 111 to 113 °C | CCN(CC)C(=O)c1cc(-c2ccccc2)c2ccccc2c1-c1ccccc1
33 | 167 to 170 °C | N#CNC(=Nc1ccncc1)NCCOc1ccccc1
34 | 271 °C | CCc1ccc2c(=O)cc(C(=O)O)[nH]c2c1
35 | 133 to 135 °C | CN(C)CCNC(=O)N1CCN(c2ccc(Br)cc2)CC1
36 | 286 °C | COc1cc(C)cc(OC)c1-c1nc(N)n[nH]1
37 | 79 to 81 °C | c1cc(-c2nc(COC3CCCCO3)no2)sc1CN1CCCCCC1 (centres undefined)
38 | 163 to 165 °C | O=C1NCCN1C1CCC(NCC(O)COc2ccc(OCC3CC3)cc2)CC1 (centres undefined)
39 | 64 to 66 °C | O=C(O)c1cc(F)c(N2CCCC2)nc1NC1CC1
40 | 90 to 91 °C | CNC(=O)/C(=N/OC)c1ccccc1Oc1cc(C)cc(C)c1
41 | 142 to 143 °C | CN1CCC(c2ccc(N(C)C)cc2)(C(C)(C)O)CC1
42 | 254 to 257 °C | Cc1cccc(Cl)c1CNc1c(NC(C)(C)C)c(=O)c1=O

Row | melting point | Compound
43 | 175 to 176 °C | CCCc1nc2c(N)nc3cc(OCc4cccc([N+](=O)[O-])c4)ccc3c2n1CC(C)C
44 | 211 to 212 °C | O=C1CC=Cc2ncncc21
45 | 147 to 149 °C | Cc1ccccc1-c1ccc(C(=O)N2Cc3ccc(C(=O)NCc4cccnc4)n3Cc3ccccc32)cc1C
46 | 124 to 126 °C | CS(=O)(=O)OCC1COC(=O)N1c1ccc(Cl)cc1 (centres undefined)
47 | 124 to 126 °C | Cc1ccc([C@H](CC(=O)O)NC(=O)Nc2c(OCc3ccccc3)cc(C)n(Cc3ccccc3)c2=O)cc1
48 | 267 to 268 °C | CC(C)(C)OC(=O)NCCCn1c2c(c3ccc(NC(=O)C(=O)O)cc3c1=O)C(=O)c1ccccc1-2
49 | 154 °C | Cc1cccc(C2c3ccccc3S(=O)(=O)N2C)c1 (single isomer, unassigned; (+))
50 | 74 to 75 °C | CCCCCCCCCCNC(=O)CCCO
51 | 119 to 120 °C | CCCc1cc(Cl)c2oc(Cc3ccc(OC(C)=O)cc3)c(C)c2c1OC(C)=O
52 | 136 to 138 °C | COc1cc(OC)c2sc(-c3c(F)cccc3F)nc2c1
53 | 220 to 222 °C | Cc1nc(-n2cnn(CC3CC3(F)F)c2=O)sc1C(=O)O (centres undefined)
54 | 50.5 to 52 °C | COC(=O)c1ccccc1COc1ccc(CCCO)cc1
55 | 155 to 157 °C | CCCCc1ccc(CCCCS(=O)(=O)Cc2cccc(/C=C/c3cccc(NC(=O)CC(CC)(CC)C(=O)O)c3)n2)cc1
56 | 162 to 165 °C | CC1=C(c2ccncc2)SC(Nc2ccccc2)C(=O)N1 (centres undefined)
57 | 258 °C | O=C(Nc1cc2nc(-c3ccc(C(=O)C4CCCCC4)cc3)[nH]c2cn1)c1ccccn1
58 | 165 to 168 °C | COc1cc(N)c(Cl)cc1C(=O)NCC1CCN(CCCCNC(=O)c2ccccc2)CC1
59 | > 250 °C | COc1ccc2ncc(C#N)c(Nc3ccc4cn[nH]c4c3)c2c1
60 | 127 to 128 °C | O=C(C=Cc1cccc(-c2ccc(O)cc2)c1)NO
61 | 151 to 152 °C | CCCc1ccc2nc(C(F)(F)F)c(S(N)(=O)=O)n2n1

The next lines start with the compound.

Row | Compound | melting point
62 | COc1cc(/C=C/CO)cc(OC)c1OCc1ccccc1 | 72 to 73 °C
63 | Clc1nccc2scc(Br)c12 | 153 to 155 °C
64 | CNc1ccc(-c2nc3c4ccccc4ccc3n2C)cc1 | 225 to 227 °C
65 | FC(F)(F)C(c1cc(-c2ccccc2)c(-c2ccccc2)[nH]1)C(F)(F)F | 112 to 114 °C
66 | COc1ccc(Cl)cc1C(=O)NCCc1ccc(-c2ccc(Cl)cc2)c(S(N)(=O)=O)c1 | 185 °C
67 | Cc1nnc(C(C)C)n1C1CC2CCC(C1)N2CCC(NC(=O)C1CCC(F)(F)CC1)c1ccc(NC(=O)COCC(=O)NCCCCCCCN)cc1 (centres undefined) | 100 to 102 °C
68 | COc1ccc(C(=O)Nc2cccc3cnccc23)cc1OC | 193 to 194 °C
69 | CC(=O)Cc1ccc(C#CC(C)(C)O)cc1 | 67 to 69 °C
70 | CCCNC(=O)C(=O)CCC(=O)O | 79 to 81 °C
71 | COC(=O)c1c(Oc2ccccc2[N+](=O)[O-])c2ccccc2n1C | 119 to 121 °C
72 | CC(C(=O)O)c1ccc(-c2ccc(F)cc2Br)cc1 (centres undefined) | 77 to 79 °C
73 | CCCCCCCNC(=O)CCCCCCCSc1nc(-c2ccccc2)c(-c2ccccc2)[nH]1 | 119 to 120 °C
74 | CCC(O)c1ncn2c1CN(C)C(=O)c1ccccc1-2 (centres undefined) | 145 to 147 °C
75 | CCOC(=O)c1[nH]c(C)c2c1CCC2 | 166 to 167 °C
76 | O=C1NC(=O)C(=Cc2ccc(OC[C@@H]3CCCN3c3ccccn3)cc2)S1 | 164 °C
77 | Cn1ncc(C(=O)N2CCOCC2)c1C(=O)Nc1ccn2nc(-c3ccnc(F)c3)nc2c1 | > 280 °C
78 | Oc1cnc2cccc(Cl)c2n1 | > 250 °C
79 | CCOCc1nc2cnc3cc(Br)ccc3c2n1CC1CCN(C(=O)OC(C)(C)C)CC1 | 169 to 170 °C
80 | CSc1csc2ccc(Br)cc12 | 56 to 57 °C
81 | CC(C)(C)OC(=O)N1CCC2(CC1)NC(=O)N(CC(O)CO)C2=O (centres undefined) | 167 to 170 °C
82 | CC(C)(C)OC(=O)/C(=C/c1ccc(Br)cc1)C(=O)c1ccccc1O | 98 to 100 °C
83 | CCNC(=O)N(C)c1c(C)cc(C(O)(C(F)(F)F)C(F)(F)F)cc1C | 178 to 179 °C

Row | Compound | melting point
84 | CC(=O)NC(COc1ccccc1)C(=O)O (centres undefined) | 90 to 92 °C
85 | CN(C)C1(c2ccccc2)CCC(CNC(=O)N2CC=C(c3c[nH]c4ccc(Cl)cc34)CC2)CC1 (centres undefined) | 183 to 185 °C
86 | CCOC(=O)c1ccc(C(NCC(=O)Nc2c(C(C)C)cccc2C(C)C)c2ccccc2)cc1 (centres undefined) | 139 to 140 °C
87 | Cc1cc(CSc2cccc(OCc3cccc4ccccc34)c2)oc(=O)c1 | 139 °C
88 | Cc1ccc(S(=O)(=O)C2=CC3CCC2N3C(=O)OC(C)(C)C)cc1 (centres undefined) | 144 to 147 °C
89 | O=C(CN1C(=O)C(NC(=O)OCc2ccccc2)N=C(c2ccccc2)c2ccccc21)NCc1ccccc1 (centres undefined) | 204 to 205 °C
90 | COc1ccc(C2(c3ccc(N(C)C)cc3)OC(=O)c3cc(N(C)C)ccc32)cc1 (centres undefined) | 156 to 161 °C
91 | CON1CC(c2ccc(OCc3ccccc3)cc2)CC1=O (centres undefined) | 92 to 97 °C
92 | COc1cc(C(C)C)c2c(c1)S(=O)(=O)N(COc1cc(C#N)nn1-c1ccc(Cl)cc1)C2=O | 135 °C
93 | O=c1c2c(nc3ccc(Cl)cn13)CCC2 | 146 to 147 °C
94 | O=C1CC[C@H]2CC3(C=C[C@@H]2C1)OCCO3 (relative stereo) | 58 to 59 °C
95 | Clc1ccccc1-c1ccc2nncn2c1 | 177 to 180 °C
96 | CN(C)c1ccccc1CC(=O)N1C[C@@H]2[C@H](F)CCC(c3ccccc3)(c3ccccc3)[C@@H]2C1 | 186 °C
97 | Cc1nc(-c2c(Cl)cccc2Cl)n[nH]1 | 221 to 226 °C
98 | CCc1cc(NC(=O)c2cccs2)cc(CC)c1O | 190 to 192 °C
99 | Cc1ccc(-c2ncn(-c3ccc(OC(F)(F)C(F)(F)F)cc3)n2)cc1 | 130 to 132 °C
100 | CCOc1ccc(-c2nnc(C#N)o2)cc1 | 110 °C
101 | COc1cnnc(Oc2ccnc(OC(F)F)c2)c1 | 119 to 120 °C
102 | CCCCCCCCCCCCC(Oc1ccc2c(c1)OCO2)C(=O)O (centres undefined) | 70 to 72 °C
103 | CC(C)(C)CC(=O)N1CCN(c2ccc3ncc(Br)n3n2)CC1 | 170 to 171 °C
104 | CCCCC(=O)N(Cc1ccc(-c2ccccc2-c2nnn[nH]2)cc1)C(C(=O)O)c1ccccc1 (centres undefined) | 145 to 148 °C
